Data: patent US8957096B2, “Herbicidally active oxime-ether-substituted benzoylamides” (Bayer Intellectual Property GmbH, priority 2011, dated 2015)

Legend:
Type in all cases: in vivo
Setaria viridis = experiment: Pre-emergence herbicidal action against harmful plants; details: 504 h, application rate 320 g/ha, assessed visually after 3 weeks vs untreated controls, read-out: herbicidal activity in percent (%)
From the text: (§1) 1. Pre-Emergence Herbicidal Action Against Harmful Plants Seeds of monocotyledonous and dicotyledonous weed plants and crop plants are placed in wood-fiber pots in sandy loam and covered with soil. The compounds according to the invention, formulated in the form of wettable powders (WP) or as emulsion concentrates (EC), are then applied as aqueous suspension or emulsion at a water application rate of 600 to 800 l/ha (converted) with the addition of 0.2% of wetting agent to the surface of the covering soil. After the treatment, the pots are placed in a greenhouse and kept under good growth conditions for the test plants. The damage to the test plants is assessed visually after a test period of 3 weeks by comparison with untreated controls (herbicidal activity in percent (%): 100% activity=the plants have died, 0% activity=like control plants). Here, the compounds Nos. 1-002, 1-004, 1-007, 1-008, 1-043, 1-044, 1-046, 1-047, 1-060, 1-079, 1-080, 1-082, 1-083, 1-085, 1-095, 1-096, 1-098, 1-099, 1-059, 2-015, 3-015, 3-018, 3-020, 4-001, 4-118, 5-004, 5-017, 5-043, 5-056, 5-082, 5-095, 6-017, 7-017, 8-017 and 8-014, for example, each show, at an application rate of 320 g/ha, an activity of at least 80% against Abuthilon theophrasti and Amaranthus retroflexus. The compounds Nos. 1-001, 1-005, 1-014, 1-015, 1-017, 1-018, 1-020, 1-033, 1-040, 1-041, 1-053, 1-054, 1-056, 1-057, 1-092, 1-093, 3-014, 3-015, 8-014, 8-017 and 8-015 each show, at an application rate of 320 g/ha, an activity of at least 80% against Setaria viridis and Stellaria media. The compounds Nos. 3-017, 4-092 and 6-004 show, at an application rate of 320 g/ha, an activity of at least 80% against Amaranthus retroflexus and Veronica persica.

Stellaria media [1] = experiment: as above; details: 504 h, application rate 320 g/ha, assessed visually after 3 weeks vs untreated controls, read-out: herbicidal activity in percent (%)
From the text: as §1

Abuthilon theophrasti [2] = experiment: Post-emergence herbicidal action against harmful plants; details: 504 h, application rate 80 g/ha, assessed visually after about 3 weeks vs untreated controls, read-out: herbicidal action in percent (%)
Method: (§2) 2. Post-Emergence Herbicidal Action Against Harmful Plants Seeds of monocotyledonous and dicotyledonous weed and crop plants are placed in sandy loam in wood-fiber pots, covered with soil and cultivated in a greenhouse under good growth conditions. 2 to 3 weeks after sowing, the test plants are treated at the one-leaf stage. The inventive compounds formulated in the form of wettable powders (WP) or as emulsion concentrates (EC) are then sprayed onto the green parts of the plants as an aqueous suspension or emulsion at a water application rate of 600 to 800 l/ha (converted) with addition of 0.2% wetting agent. After the test plants have been left to stand in the greenhouse under optimal growth conditions for about 3 weeks, the action of the formulations is assessed visually in comparison to untreated controls (herbicidal action in percent (%): 100% activity=the plants have died, 0% activity=like control plants). Here, the compounds Nos. 1-001, 1-002, 1-004, 1-005, 1-007, 1-008, 1-014, 1-015, 1-017, 1-018, 1-020, 1-033, 1-040, 1-041, 1-043, 1-044, 1-046, 1-047, 1-053, 1-054, 1-056, 1-057, 1-059, 1-060, 1-079, 1-080, 1-082, 1-083, 1-086, 1-092, 1-093, 1-095, 1-096, 1-098, 1-099, 2-015, 3-014, 3-015, 3-017, 3-018, 3-020, 5-082, 5-095, 6-017, 7-017 and 8-014 each show, at an application rate of 80 g/ha, an activity of at least 80% against Abuthilon theophrasti, Amaranthus retroflexus and Stellaria media. The compounds Nos. 4-092, 4-093, 5-004, 5-017, 5-043 and 5-056 each show, at an application rate of 80 g/ha, an activity of at least 80% against Echinocloa crus galli, Pharbitis purpureum and Stellaria media.

Amaranthus retroflexus [3] = experiment: as above; details: 504 h, application rate 80 g/ha, assessed visually after about 3 weeks vs untreated controls, read-out: herbicidal action in percent (%)
Method: as §2

Stellaria media [4] = experiment: as above; details: 504 h, application rate 80 g/ha, assessed visually after about 3 weeks vs untreated controls, read-out: herbicidal action in percent (%)
Method: as §2

Abuthilon theophrasti [5] = experiment: Pre-emergence herbicidal action against harmful plants; details: 504 h, application rate 320 g/ha, assessed visually after 3 weeks vs untreated controls, read-out: herbicidal activity in percent (%)
From the text: as §1

Amaranthus retroflexus [6] = experiment: as above; details: 504 h, application rate 320 g/ha, assessed visually after 3 weeks vs untreated controls, read-out: herbicidal activity in percent (%)
From the text: as §1

CO/N=C/c1c(Cl)ccc(C(=O)Nc2nnnn2C)c1Cl [1-001]
≥ 80%: pest or weed control at 320 g/ha (Setaria viridis) | pest or weed control at 320 g/ha (Stellaria media [1]) | pest or weed control at 80 g/ha (Abuthilon theophrasti [2]) | pest or weed control at 80 g/ha (Amaranthus retroflexus [3]) | pest or weed control at 80 g/ha (Stellaria media [4])

CCO/N=C/c1c(Cl)ccc(C(=O)Nc2nnnn2C)c1Cl [1-002]
≥ 80%: pest or weed control at 320 g/ha (Abuthilon theophrasti [5]) | pest or weed control at 320 g/ha (Amaranthus retroflexus [6]) | pest or weed control at 80 g/ha (Abuthilon theophrasti [2]) | pest or weed control at 80 g/ha (Amaranthus retroflexus [3]) | pest or weed control at 80 g/ha (Stellaria media [4])

CO/N=C/c1c(S(C)(=O)=O)ccc(C(=O)Nc2nnnn2C)c1Cl [1-014]
≥ 80%: pest or weed control at 320 g/ha (Setaria viridis) | pest or weed control at 320 g/ha (Stellaria media [1]) | pest or weed control at 80 g/ha (Abuthilon theophrasti [2]) | pest or weed control at 80 g/ha (Amaranthus retroflexus [3]) | pest or weed control at 80 g/ha (Stellaria media [4])

CCO/N=C/c1c(S(C)(=O)=O)ccc(C(=O)Nc2nnnn2C)c1Cl [1-015]
≥ 80%: pest or weed control at 320 g/ha (Setaria viridis) | pest or weed control at 320 g/ha (Stellaria media [1]) | pest or weed control at 80 g/ha (Abuthilon theophrasti [2]) | pest or weed control at 80 g/ha (Amaranthus retroflexus [3]) | pest or weed control at 80 g/ha (Stellaria media [4])

CCn1nnnc1NC(=O)c1ccc(Cl)c(/C=N/OC)c1Cl [1-040]
≥ 80%: pest or weed control at 320 g/ha (Setaria viridis) | pest or weed control at 320 g/ha (Stellaria media [1]) | pest or weed control at 80 g/ha (Abuthilon theophrasti [2]) | pest or weed control at 80 g/ha (Amaranthus retroflexus [3]) | pest or weed control at 80 g/ha (Stellaria media [4])

CCO/N=C/c1c(Cl)ccc(C(=O)Nc2nnnn2CC)c1Cl [1-041]
≥ 80%: pest or weed control at 320 g/ha (Setaria viridis) | pest or weed control at 320 g/ha (Stellaria media [1]) | pest or weed control at 80 g/ha (Abuthilon theophrasti [2]) | pest or weed control at 80 g/ha (Amaranthus retroflexus [3]) | pest or weed control at 80 g/ha (Stellaria media [4])

CCn1nnnc1NC(=O)c1ccc(S(C)(=O)=O)c(/C=N/OC)c1Cl [1-053]
≥ 80%: pest or weed control at 320 g/ha (Setaria viridis) | pest or weed control at 320 g/ha (Stellaria media [1]) | pest or weed control at 80 g/ha (Abuthilon theophrasti [2]) | pest or weed control at 80 g/ha (Amaranthus retroflexus [3]) | pest or weed control at 80 g/ha (Stellaria media [4])

CCO/N=C/c1c(S(C)(=O)=O)ccc(C(=O)Nc2nnnn2CC)c1Cl [1-054]
≥ 80%: pest or weed control at 320 g/ha (Setaria viridis) | pest or weed control at 320 g/ha (Stellaria media [1]) | pest or weed control at 80 g/ha (Abuthilon theophrasti [2]) | pest or weed control at 80 g/ha (Amaranthus retroflexus [3]) | pest or weed control at 80 g/ha (Stellaria media [4])

C#CCON=Cc1c(S(C)(=O)=O)ccc(C(=O)Nc2nnnn2CC)c1Cl [1-057, 2-chloro-N-(1-ethyl-1H-tetrazol-5-yl)-4-(methylsulfonyl)-3-{[(prop-2-yn-1-yloxy)imino]methyl}benzamide]
≥ 80%: pest or weed control at 320 g/ha (Setaria viridis) | pest or weed control at 320 g/ha (Stellaria media [1]) | pest or weed control at 80 g/ha (Abuthilon theophrasti [2]) | pest or weed control at 80 g/ha (Amaranthus retroflexus [3]) | pest or weed control at 80 g/ha (Stellaria media [4])

CCCn1nnnc1NC(=O)c1ccc(Cl)c(/C=N/OC)c1Cl [1-079]
≥ 80%: pest or weed control at 320 g/ha (Abuthilon theophrasti [5]) | pest or weed control at 320 g/ha (Amaranthus retroflexus [6]) | pest or weed control at 80 g/ha (Abuthilon theophrasti [2]) | pest or weed control at 80 g/ha (Amaranthus retroflexus [3]) | pest or weed control at 80 g/ha (Stellaria media [4])

CCCn1nnnc1NC(=O)c1ccc(Cl)c(/C=N/OCC)c1Cl [1-080]
≥ 80%: pest or weed control at 320 g/ha (Abuthilon theophrasti [5]) | pest or weed control at 320 g/ha (Amaranthus retroflexus [6]) | pest or weed control at 80 g/ha (Abuthilon theophrasti [2]) | pest or weed control at 80 g/ha (Amaranthus retroflexus [3]) | pest or weed control at 80 g/ha (Stellaria media [4])

CCCn1nnnc1NC(=O)c1ccc(S(C)(=O)=O)c(/C=N/OC)c1Cl [1-092]
≥ 80%: pest or weed control at 320 g/ha (Setaria viridis) | pest or weed control at 320 g/ha (Stellaria media [1]) | pest or weed control at 80 g/ha (Abuthilon theophrasti [2]) | pest or weed control at 80 g/ha (Amaranthus retroflexus [3]) | pest or weed control at 80 g/ha (Stellaria media [4])

CCCn1nnnc1NC(=O)c1ccc(S(C)(=O)=O)c(/C=N/OCC)c1Cl [1-093]
≥ 80%: pest or weed control at 320 g/ha (Setaria viridis) | pest or weed control at 320 g/ha (Stellaria media [1]) | pest or weed control at 80 g/ha (Abuthilon theophrasti [2]) | pest or weed control at 80 g/ha (Amaranthus retroflexus [3]) | pest or weed control at 80 g/ha (Stellaria media [4])
